Measured values reported in patent US6908931B2, “Tetrahydroisoquinoline derivatives as melatonin MT2 antagonists” (Bristol-Myers Squibb Company, priority 2003, dated 2005).

Target: T1, human MT2 receptor (Homo sapiens, UniProt P49286)
T1 construct: melatonin MT1 and MT2 receptors cDNA were individually subcloned into pcDNA3 and introduced into NIH-3T3 cells using Lipofectamine; expressed in transfected cells
T1 sequence (P49286 1-362): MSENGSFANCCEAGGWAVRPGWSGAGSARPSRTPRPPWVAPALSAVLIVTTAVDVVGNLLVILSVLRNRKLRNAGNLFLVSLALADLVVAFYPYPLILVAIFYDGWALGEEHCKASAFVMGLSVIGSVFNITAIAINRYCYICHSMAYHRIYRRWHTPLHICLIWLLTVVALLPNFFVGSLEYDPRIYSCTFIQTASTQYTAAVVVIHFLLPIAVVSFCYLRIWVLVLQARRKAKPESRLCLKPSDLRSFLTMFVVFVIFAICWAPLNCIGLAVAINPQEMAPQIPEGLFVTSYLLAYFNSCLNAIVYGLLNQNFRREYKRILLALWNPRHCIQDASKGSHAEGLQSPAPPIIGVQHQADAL
Test: Melatonin receptor binding assay (MT2), 2-[125I]-iodomelatonin
Conditions: membrane homogenates of NIH-3T3 cells expressing MT2; 2-[125I]-iodomelatonin 0.2 nM; 37° C., 1 hour; read-out: MT2 IC50
Experimental: Melatonin receptor binding assay.
Membrane homogenates: melatonin MT1 and MT2 receptors cDNA were individually subcloned into pcDNA3 and introduced into NIH-3T3 cells using Lipofectamine. […] For preparing membrane homogenates, pellets are thawed on ice, and re-suspended in TME buffer in the presence of 10 μg/ml aprotinin and leupeptin, and 100 μM phenylmethylsulfonylfluoride. The cells were then homogenized using a dounce homogenizer, and centrifuged. The resulting pellet was re-suspended with dounce homogenizer in TME (supplemented with the above protease inhibitors) and frozen. On the day of assay, a small aliquot was thawed on ice and re-suspended in the ice cold TME (1:50-1:100 v/v) and held on ice until assayed. Incubation is at 37° C. for 1 hour. Reaction is terminated by filtration. Filters were washed 3 times.

SMILES	IC50 [nM]
COc1cc2c(cc1OC)C(CC(c1ccccc1)c1ccccc1)N(C(C)=O)CC2 (stereo not drawn) [Example 1, N-acetyl 1-(2,2-diphenyleth-1-yl)-6,7-dimethoxy-1,2,3,4-tetrahydroisoquinoline]	< 100
COc1cc2c(cc1OC)C(CC(c1ccccc1)c1ccccc1)N(C=O)CC2 (stereo not drawn) [Example 2, N-formyl 1-(2,2-diphenyleth-1-yl)-6,7-dimethoxy-1,2,3,4-tetrahydroisoquinoline]	< 100
CCC(=O)N1CCc2cc(OC)c(OC)cc2C1CC(c1ccccc1)c1ccccc1 (stereo not drawn) [Example 3, N-propionyl 1-(2,2-diphenyleth-1-yl)-6,7-dimethoxy-1,2,3,4-tetrahydroisoquinoline]	< 100
CCCC(=O)N1CCc2cc(OC)c(OC)cc2C1CC(c1ccccc1)c1ccccc1 (stereo not drawn) [Example 4, N-butyryl 1-(2,2-diphenyleth-1-yl)-6,7-dimethoxy-1,2,3,4-tetrahydroisoquinoline]	< 100
COc1cc2c(cc1OC)C(CC(c1ccccc1)c1ccccc1)N(C(=O)C1CC1)CC2 (stereo not drawn) [Example 5, N-cyclopropylcarbonyl 1-(2,2-diphenyleth-1-yl)-6,7-dimethoxy-1,2,3,4-tetrahydroisoquinoline]	< 100
COc1cc2c(cc1OC)C(CC(c1ccccc1)c1ccccc1)N(C(=O)c1ccccc1)CC2 (stereo not drawn) [Example 6, N-benzoyl 1-(2,2-diphenyleth-1-yl)-6,7-dimethoxy-1,2,3,4-tetrahydroisoquinoline]	100 to 1000
COc1cc2c(cc1OC)C(CC(c1ccccc1)c1ccccc1)N(C(=O)C(F)(F)F)CC2 (stereo not drawn) [Example 7, N-trifluoroacetyl 1-(2,2-diphenyleth-1-yl)-6,7-dimethoxy-1,2,3,4-tetrahydroisoquinoline]	100 to 1000
COc1cc2c(cc1OC)C(CC(c1ccccc1)c1ccccc1)N(C(N)=O)CC2 (stereo not drawn) [Example 8, N-carbamoyl 1-(2,2-diphenyleth-1-yl)-6,7-dimethoxy-1,2,3,4-tetrahydroisoquinoline]	< 100
CNC(=O)N1CCc2cc(OC)c(OC)cc2C1CC(c1ccccc1)c1ccccc1 (stereo not drawn) [Example 9, N-methylcarbamoyl 1-(2,2-diphenyleth-1-yl)-6,7-dimethoxy-1,2,3,4-tetrahydroisoquinoline]	< 100
COC(=O)N1CCc2cc(OC)c(OC)cc2C1CC(c1ccccc1)c1ccccc1 (stereo not drawn) [Example 10, N-carbomethoxy 1-(2,2-diphenyleth-1-yl)-6,7-dimethoxy-1,2,3,4-tetrahydroisoquinoline]	< 100
COc1cc2c(cc1OC)C(CC(c1ccccc1)c1ccccc1)N(S(C)(=O)=O)CC2 (stereo not drawn) [Example 12]	< 100
COc1cc2c(cc1OC)C(CC(c1ccccc1)c1ccccc1)N(C(=O)c1cccs1)CC2 (stereo not drawn) [Example 13]	100 to 1000
COc1cc2c(cc1OC)C(CCc1ccccc1)N(C(C)=O)CC2 (stereo not drawn) [Example 14]	< 100
COc1cc2c(cc1OC)C(CCc1ccccc1)N(C=O)CC2 (stereo not drawn) [Example 15]	< 100
COc1cc2c(cc1OC)C(CCc1ccccc1)N(C(N)=O)CC2 (stereo not drawn) [Example 16]	100 to 1000
COc1ccc2c(c1)CCN(C(C)=O)C2CC(c1ccccc1)c1ccccc1 (stereo not drawn) [Example 17]	100 to 1000
COc1cc2c(cc1OC)C(CC(C)c1ccccc1)N(C(C)=O)CC2 (stereo not drawn) [Example 18]	100 to 1000
COc1ccc2c(c1)C(CC(c1ccccc1)c1ccccc1)N(C(C)=O)CC2 (stereo not drawn) [Example 19]	< 100
COc1ccc2c(c1)C(CC(c1ccccc1)c1ccccc1)N(C(C)=O)CC2 (stereo not drawn) [Example 20]	< 100
COc1cc2c(c(OC)c1)C(CC(c1ccccc1)c1ccccc1)N(C(C)=O)CC2 (stereo not drawn) [Example 21]	< 100
COc1cc2c(cc1Br)CCN(C(C)=O)C2CC(c1ccccc1)c1ccccc1 (stereo not drawn) [Example 22]	< 100
COc1ccc2c(c1OC)CCN(C(C)=O)C2CC(c1ccccc1)c1ccccc1 (stereo not drawn) [Example 24]	100 to 1000

SMILES	IC50 [nM]
COc1ccc(C(CC2c3cc(OC)c(OC)cc3CCN2C(C)=O)c2ccc(OC)cc2)cc1 (stereo not drawn) [Example 25]	100 to 1000
COc1cc2c(cc1OC)C(CC1c3ccccc3-c3ccccc31)N(C(C)=O)CC2 (stereo not drawn) [Example 26]	100 to 1000
CC(=O)N1CCc2cc(F)ccc2C1CC(c1ccccc1)c1ccccc1 (stereo not drawn) [Example 28]	100 to 1000
COc1cccc2c1CCN(C(C)=O)C2CC(c1ccccc1)c1ccccc1 (stereo not drawn) [Example 29]	100 to 1000
COc1cc2c(cc1Br)CCN(C(=O)c1ccco1)C2CC(c1ccccc1)c1ccccc1 (stereo not drawn) [Example 30]	100 to 1000
COc1cc2c(cc1Br)CCN(C(=O)COc1ccccc1)C2CC(c1ccccc1)c1ccccc1 (stereo not drawn) [Example 31]	100 to 1000
COc1cc2c(cc1Br)CCN(C(=O)C1CCC1)C2CC(c1ccccc1)c1ccccc1 (stereo not drawn) [Example 32]	100 to 1000
COc1cc2c(cc1Br)CCN(C(=O)C1CCCCC1)C2CC(c1ccccc1)c1ccccc1 (stereo not drawn) [Example 33]	100 to 1000
CCCCCC(=O)N1CCc2cc(Br)c(OC)cc2C1CC(c1ccccc1)c1ccccc1 (stereo not drawn) [Example 34]	100 to 1000
CCCCCCC(=O)N1CCc2cc(Br)c(OC)cc2C1CC(c1ccccc1)c1ccccc1 (stereo not drawn) [Example 35]	< 100
COc1cc2c(cc1Br)CCN(C(=O)CC(C)(C)C)C2CC(c1ccccc1)c1ccccc1 (stereo not drawn) [Example 36]	100 to 1000
COc1cc2c(cc1Br)CCN(C(=O)c1cccc([N+](=O)[O-])c1)C2CC(c1ccccc1)c1ccccc1 (stereo not drawn) [Example 37]	100 to 1000
COc1cc2c(cc1Br)CCN(C(=O)c1ccc([N+](=O)[O-])cc1)C2CC(c1ccccc1)c1ccccc1 (stereo not drawn) [Example 38]	100 to 1000
COc1cc2c(cc1Br)CCN(C(=O)c1ccc(C)cc1)C2CC(c1ccccc1)c1ccccc1 (stereo not drawn) [Example 39]	100 to 1000
COc1cc2c(cc1Br)CCN(C(=O)c1ccc(C(F)(F)F)cc1)C2CC(c1ccccc1)c1ccccc1 (stereo not drawn) [Example 40]	100 to 1000
COc1cc2c(cc1OC)C(CC(c1ccccc1)c1ccccc1)N(C(=O)c1ccco1)CC2 (stereo not drawn) [Example 41]	100 to 1000
COc1cc2c(cc1OC)C(CC(c1ccccc1)c1ccccc1)N(C(=O)c1ccccc1OC)CC2 (stereo not drawn) [Example 42]	100 to 1000
COc1cc2c(cc1OC)C(CC(c1ccccc1)c1ccccc1)N(C(=O)C1CCC1)CC2 (stereo not drawn) [Example 43]	100 to 1000
COc1cc2c(cc1OC)C(CC(c1ccccc1)c1ccccc1)N(C(=O)C1CCCCC1)CC2 (stereo not drawn) [Example 44]	< 100
CCCCCCC(=O)N1CCc2cc(OC)c(OC)cc2C1CC(c1ccccc1)c1ccccc1 (stereo not drawn) [Example 45]	100 to 1000
COc1cc2c(cc1OC)C(CC(c1ccccc1)c1ccccc1)N(C(=O)c1ccc(C(F)(F)F)cc1)CC2 (stereo not drawn) [Example 54]	100 to 1000

Next, values leading:

IC50 [nM]	SMILES
< 100	COc1cc2c(cc1OC)C(CCc1ccccc1)N(C(=O)c1ccco1)CC2 (stereo not drawn) [Example 55]
100 to 1000	COc1cc2c(cc1OC)C(CCc1ccccc1)N(C(=O)COc1ccccc1)CC2 (stereo not drawn) [Example 56]
< 100	COc1cc2c(cc1OC)C(CCc1ccccc1)N(C(=O)C1CCC1)CC2 (stereo not drawn) [Example 57]
100 to 1000	COc1cc2c(cc1OC)C(CCc1ccccc1)N(C(=O)C1CCCCC1)CC2 (stereo not drawn) [Example 58]
100 to 1000	COc1cc2c(cc1OC)C(CCc1ccccc1)N(C(=O)C(C)C)CC2 (stereo not drawn) [Example 59]
100 to 1000	CCCCCC(=O)N1CCc2cc(OC)c(OC)cc2C1CCc1ccccc1 (stereo not drawn) [Example 60]
100 to 1000	CCCCCCC(=O)N1CCc2cc(OC)c(OC)cc2C1CCc1ccccc1 (stereo not drawn) [Example 61]
100 to 1000	CCCCCCCCCC(=O)N1CCc2cc(OC)c(OC)cc2C1CCc1ccccc1 (stereo not drawn) [Example 62]
100 to 1000	COc1cc2c(cc1OC)C(CCc1ccccc1)N(C(=O)CC(C)(C)C)CC2 (stereo not drawn) [Example 63]
< 100	COc1ccc(C(=O)N2CCc3cc(OC)c(OC)cc3C2CCc2ccccc2)cc1 (stereo not drawn) [Example 64]
100 to 1000	COc1cc2c(cc1OC)C(CCc1ccccc1)N(C(=O)c1cccc([N+](=O)[O-])c1)CC2 (stereo not drawn) [Example 65]
100 to 1000	COc1cc2c(cc1OC)C(CCc1ccccc1)N(C(=O)c1ccc([N+](=O)[O-])cc1)CC2 (stereo not drawn) [Example 66]
100 to 1000	COc1cc2c(cc1OC)C(CCc1ccccc1)N(C(=O)c1cccc(C)c1)CC2 (stereo not drawn) [Example 67]
100 to 1000	COc1cc2c(cc1OC)C(CCc1ccccc1)N(C(=O)Cc1ccccc1)CC2 (stereo not drawn) [Example 68]
100 to 1000	COc1cc2c(cc1OC)C(CCc1ccccc1)N(C(=O)c1cc(C(F)(F)F)cc(C(F)(F)F)c1)CC2 (stereo not drawn) [Example 69]
100 to 1000	COc1cc2c(cc1OC)C(CCc1ccccc1)N(C(=O)c1ccc(C(F)(F)F)cc1)CC2 (stereo not drawn) [Example 70]
100 to 1000	COc1ccc2c(c1)C(CC(c1ccccc1)c1ccccc1)N(C(=O)CC(C)(C)C)CC2 (stereo not drawn) [Example 78]
100 to 1000	COc1ccc(C(=O)N2CCc3ccc(OC)cc3C2CC(c2ccccc2)c2ccccc2)cc1 (stereo not drawn) [Example 79]
100 to 1000	COc1ccc2c(c1)C(CC(c1ccccc1)c1ccccc1)N(C(=O)c1cccc([N+](=O)[O-])c1)CC2 (stereo not drawn) [Example 80]
100 to 1000	COc1ccc2c(c1)C(CC(c1ccccc1)c1ccccc1)N(C(=O)c1ccc([N+](=O)[O-])cc1)CC2 (stereo not drawn) [Example 81]
